According to patent US7939672B2, “Phenylacetate derivatives or pharmaceutically acceptable salts thereof, preparation method thereof and composition for prevention or treatment of diseases induced by activation of T-type calcium ion channel containing the same as an active ingredient” (Korea Institute of Science and Technology, priority 2008, dated 2011):
Where two headings read alike, the source gives them in different places.

Assays:
[1] = molecular target: T1, α1G T-type calcium ion channels (Homo sapiens, UniProt O43497); assay: Ion current inhibition on T-type calcium ion channels using a patch clamp (HEK293 cells); assay type: cell-based
T1 construct: host or cells: HEK293
T1 sequence (O43497 whole entry): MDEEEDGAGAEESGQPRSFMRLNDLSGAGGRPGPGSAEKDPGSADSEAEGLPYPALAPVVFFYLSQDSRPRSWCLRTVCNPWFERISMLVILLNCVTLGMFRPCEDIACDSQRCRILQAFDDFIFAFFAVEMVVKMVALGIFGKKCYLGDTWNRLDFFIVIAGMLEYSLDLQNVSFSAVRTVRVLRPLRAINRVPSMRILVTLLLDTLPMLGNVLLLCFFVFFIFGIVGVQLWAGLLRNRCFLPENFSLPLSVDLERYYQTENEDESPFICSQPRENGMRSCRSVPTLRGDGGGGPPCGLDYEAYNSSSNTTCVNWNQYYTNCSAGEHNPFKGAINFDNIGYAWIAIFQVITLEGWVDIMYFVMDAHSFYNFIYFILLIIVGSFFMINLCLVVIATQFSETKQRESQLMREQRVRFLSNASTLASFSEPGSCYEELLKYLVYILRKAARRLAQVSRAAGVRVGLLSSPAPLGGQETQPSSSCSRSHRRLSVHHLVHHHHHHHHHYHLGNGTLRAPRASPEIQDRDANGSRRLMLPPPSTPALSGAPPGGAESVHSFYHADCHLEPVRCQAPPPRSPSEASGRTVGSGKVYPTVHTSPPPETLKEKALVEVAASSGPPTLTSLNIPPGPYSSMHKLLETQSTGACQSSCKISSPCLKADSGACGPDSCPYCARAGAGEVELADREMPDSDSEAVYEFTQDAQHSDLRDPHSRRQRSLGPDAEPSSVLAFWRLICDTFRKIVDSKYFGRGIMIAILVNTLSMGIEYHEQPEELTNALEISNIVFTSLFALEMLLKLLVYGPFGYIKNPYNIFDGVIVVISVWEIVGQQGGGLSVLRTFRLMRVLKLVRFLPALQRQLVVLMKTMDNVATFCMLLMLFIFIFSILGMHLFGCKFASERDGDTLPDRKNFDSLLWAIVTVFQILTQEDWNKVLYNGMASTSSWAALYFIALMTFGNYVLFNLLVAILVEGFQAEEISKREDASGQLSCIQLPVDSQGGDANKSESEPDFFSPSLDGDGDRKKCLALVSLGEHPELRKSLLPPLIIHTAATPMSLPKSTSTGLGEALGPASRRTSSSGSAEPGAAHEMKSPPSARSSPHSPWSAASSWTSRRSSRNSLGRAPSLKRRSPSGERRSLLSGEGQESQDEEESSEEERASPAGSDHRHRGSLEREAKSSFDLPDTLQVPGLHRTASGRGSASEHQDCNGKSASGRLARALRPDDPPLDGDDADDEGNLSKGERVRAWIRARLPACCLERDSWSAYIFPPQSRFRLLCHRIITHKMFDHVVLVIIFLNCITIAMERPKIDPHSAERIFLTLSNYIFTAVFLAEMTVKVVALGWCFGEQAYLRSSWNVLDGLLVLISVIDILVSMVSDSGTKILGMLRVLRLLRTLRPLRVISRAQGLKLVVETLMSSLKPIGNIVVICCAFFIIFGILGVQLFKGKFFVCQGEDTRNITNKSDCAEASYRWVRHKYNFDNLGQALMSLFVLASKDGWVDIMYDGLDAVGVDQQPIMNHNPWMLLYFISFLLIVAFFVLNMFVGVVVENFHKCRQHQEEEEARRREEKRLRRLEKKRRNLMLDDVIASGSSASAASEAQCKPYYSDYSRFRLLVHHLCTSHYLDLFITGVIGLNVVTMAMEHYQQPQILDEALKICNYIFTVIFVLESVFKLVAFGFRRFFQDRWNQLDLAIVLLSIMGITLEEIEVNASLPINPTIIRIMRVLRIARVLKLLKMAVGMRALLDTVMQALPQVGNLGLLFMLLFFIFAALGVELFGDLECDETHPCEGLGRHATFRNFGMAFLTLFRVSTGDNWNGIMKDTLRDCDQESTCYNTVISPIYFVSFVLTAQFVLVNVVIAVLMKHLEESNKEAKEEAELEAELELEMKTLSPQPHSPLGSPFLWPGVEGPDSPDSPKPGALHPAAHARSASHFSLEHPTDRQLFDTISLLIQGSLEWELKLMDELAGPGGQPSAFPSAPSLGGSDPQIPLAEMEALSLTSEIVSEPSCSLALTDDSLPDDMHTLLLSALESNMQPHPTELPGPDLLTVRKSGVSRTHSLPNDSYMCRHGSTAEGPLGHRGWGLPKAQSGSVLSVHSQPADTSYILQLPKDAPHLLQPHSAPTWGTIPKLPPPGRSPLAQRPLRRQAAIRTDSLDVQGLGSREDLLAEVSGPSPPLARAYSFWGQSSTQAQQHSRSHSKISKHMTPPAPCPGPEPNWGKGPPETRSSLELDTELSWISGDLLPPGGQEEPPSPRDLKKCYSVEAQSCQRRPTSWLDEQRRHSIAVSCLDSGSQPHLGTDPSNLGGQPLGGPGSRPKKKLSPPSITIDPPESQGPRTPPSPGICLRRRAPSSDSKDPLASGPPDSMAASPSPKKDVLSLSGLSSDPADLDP
Method: Measurement of Ion Current Inhibition on T-Type Calcium Ion Channels Using a Patch Clamp
(1) Cell Culture and Preparation
20 hours prior to the use of the medium for expression of hERG channels, the Tet-expression system was activated by treating the medium with 1 μg/ml doxycycline.
The cells in the experiment was passaged once in three days, and collected when the cells were grown to 50˜80% confluency in the Petri dish. […] Trypsin was removed using a centrifuge, an extracellular solution was added, and cells floating automatically by a Patchliner were used at room temperature.
(2) Experimental Solution
As a solution composition for measurement of activation of T-type calcium ion channels, 140 mM NaCl, 2 mM CaCl2, 4 mM KCl, 1 mM MgCl2, 5 mM D-glucose, and 10 mM HEPES (pH 7.4) were used for an extracellular solution, and 50 mM KCl, 10 mM NaCl, 60 mM KF, 2 mM MgCl2, 10 mM HEPES, and 20 mM EGTA (pH 7.2) were used for an intracellular solution. To maintain the pre-cellular state, a seal reinforced solution was added. When T-type calcium ion channel expression cells were used, an extracellular solution supplemented with 10 mM Ba^2+ was added and records about the result were made.
(3) Electro-Physiological Technique and Data Processing
The current was measured through an EPC10 amplifier (HEKA, Germany) by a precellular patch clamp technique using NPC©-16 Patchliner (Nanion Technologies, Germany). Cell suspensions and various experimental solutions were automatically aliquotted into chips (NPC-16 Chip, Nanion Technologies, Germany) by experimental devices. A cell membrane potential was fixed at −100 mV for measurement of activation of T-type calcium ion channels. When a low polarization was performed at −20 mV for 300 ms, the inward current was measured at ten-second intervals.
The IC50 graphs and values were obtained from the automatic calculation of inhibition rates of the peak current using an experimental data analysis program IGOR Pro (WaveMetrics, USA).

[2] = test system: spinal nerve ligation animal model; details: Barton et al. 2005; cited from earlier work
[3] = test system: T-type calcium ion channel; details: T-type versus L-type; cited from earlier work
[4] = patch clamp, HEK293 α1G cells, unit nM, read-out: IC50 (μM), cells marked
[5] = read-out: % inhibition rate (10 μM), 10 μM, peak inward current, HEK293 cells expressing α1G T-type channel
[6] = patch clamp, HEK293 α1G cells, 10 nM to 100 μM, read-out: IC50

Q: For `COC(=O)C(CCCN(C)CCCc1nc2ccccc2[nH]1)(c1ccc(Br)cc1)C(C)C` (centres unmarked) [Embodiment 1, 5-{[3-(1H-benzimidazole-2-yl)propyl]methylamino}-2-(4-bromophenyl)-2-isopropylpentanoic acid methyl ester], which IC50 [1, 4] is on record?
A: The IC50 was 8.17 ± 0.48 nM.

Q: What about the inhibition at 10 µM [1, 5] of the same compound?
A: Its inhibition at 10 µM is 96.9 ± 0.59%.

Q: For `COC(=O)C(CCCN(C)CCCc1nc2ccccc2[nH]1)(c1ccc(OC)cc1)C(C)C` (centres unmarked) [Embodiment 4], which IC50 [1, 6] is on record?
A: The IC50 was 190 ± 1 nM.

Q: What about the inhibition at 10 µM [1, 5] of the same compound?
A: Its inhibition at 10 µM is 93.5 ± 3.2%.

Q: With `COC(=O)C(CCCN(C)CCCc1nc2cc(OC)ccc2[nH]1)(c1ccc(OC)cc1)C(C)C` (centres unmarked) [Embodiment 5] as the compound, how does the IC50 [1, 6] read?
A: The IC50 was 880 ± 70 nM.

Q: What about the inhibition at 10 µM [1, 5] of the same compound?
A: The inhibition at 10 µM was 91.7 ± 1.9%.

Q: With `CCOC(=O)C(CCCN(C)CCCc1nc2ccccc2[nH]1)(c1ccccc1)C(C)C` (centres unmarked) [Embodiment 10] as the compound, how does the IC50 [1, 6] read?
A: The IC50 was 250 ± 5 nM.

Q: And the inhibition at 10 µM [1, 5]?
A: Its inhibition at 10 µM is 98.3 ± 0.9%.

Q: What does the source list for `CCOC(=O)C(CCCN(C)CCCc1nc2cc(C)c(C)cc2[nH]1)(c1ccccc1)C(C)C` (centres unmarked) [Embodiment 11]?
A: IC50 [1, 6]: 100 ± 10 nM; inhibition at 10 µM [1, 5]: 91.4 ± 0.4%

Q: Which results are given for `COC(=O)C(CCCN(C)CCCc1nc2cc(C)c(C)cc2[nH]1)(c1ccc(Br)cc1)C(C)C` (centres unmarked) [Embodiment 12]?
A: IC50 [1, 4]: 53 ± 4.87 nM; inhibition at 10 µM [1, 5]: 94.2 ± 0.4%

Q: Which IC50 [1, 6] does the source give for `COC(=O)C(CCCN(C)CCCc1nc2cc(OC)ccc2[nH]1)(c1ccc(Br)cc1)C(C)C` (centres unmarked) [Embodiment 13] here?
A: Its IC50 is 250 ± 10 nM.

Q: And the inhibition at 10 µM [1, 5]?
A: The inhibition at 10 µM was 94.5 ± 1.2%.

Q: What does the source list for `CCOC(=O)C(CCCN1CCN(Cc2ccc(OC)cc2)CC1)(c1ccccc1)C(C)C` (centres unmarked) [Embodiment 23, ethyl 2-isopropyl-5-(4-(4-methoxybenzyl)piperazine-1-yl)-2-phenylpentanoate]?
A: IC50 [1, 6]: 340 ± 20 nM; inhibition at 10 µM [1, 5]: 96.3 ± 1.7%

Q: Which results are given for `CCOC(=O)C(CCCN1CCN(Cc2ccc(F)cc2)CC1)(c1ccccc1)C(C)C` (centres unmarked) [Embodiment 26, ethyl 5-(4-(4-fluorobenzyl)piperazine-1-yl)-2-isopropyl-2-phenylpentanoate]?
A: IC50 [1, 6]: 260 ± 30 nM; inhibition at 10 µM [1, 5]: 94 ± 2.5%

Q: For `COC(=O)C(CCCN1CCN(Cc2ccccc2F)CC1)(c1ccc(Br)cc1)C(C)C` (centres unmarked) [Embodiment 30, methyl 2-(4-bromophenyl)-5-(4-(2-fluorobenzyl)piperazine-1-yl)-2-isopropylpentanoate], which IC50 [1, 6] is on record?
A: Its IC50 is 740 ± 20 nM.

Q: And the inhibition at 10 µM [1, 5]?
A: The inhibition at 10 µM was 90.4 ± 3.2%.

Q: Which IC50 [1, 6] does the source give for `COC(=O)C(CCCN1CCN(Cc2cccc(F)c2)CC1)(c1ccc(Br)cc1)C(C)C` (centres unmarked) [Embodiment 31, methyl 2-(4-bromophenyl)-5-(4-(3-fluorobenzyl)piperazine-1-yl)-2-isopropylpentanoate] here?
A: The IC50 was 980 ± 110 nM.

Q: What about the inhibition at 10 µM [1, 5] of the same compound?
A: The inhibition at 10 µM was 89.3 ± 1.6%.

Q: Which results are given for `COC(=O)C(CCCN1CCN(Cc2ccc(F)cc2)CC1)(c1ccc(Br)cc1)C(C)C` (centres unmarked) [Embodiment 32, methyl 2-(4-bromophenyl)-5-(4-(4-fluorobenzyl)piperazine-1-yl)-2-isopropylpentanoate]?
A: IC50 [1, 6]: 1110 ± 50 nM; inhibition at 10 µM [1, 5]: 96.5 ± 1.7%

Q: Which results are given for `COC(=O)C(CCCN1CCN(Cc2ccc(C(F)(F)F)cc2)CC1)(c1ccc(Br)cc1)C(C)C` (centres unmarked) [Embodiment 34, methyl 2-(4-bromophenyl)-2-isopropyl-5-(4-(4-(trifluoromethyl)benzyl)piperazine-1-yl)pentanoate]?
A: IC50 [1]: 280 ± 20 nM; inhibition at 10 µM ([1]; HEK293, read-out: % inhibition rate (10 μM)): 93 ± 1.5%

Q: Which results are given for `COC(=O)C(CCCN1CCN(c2ccccc2OC)CC1)(c1ccc(Br)cc1)C(C)C` (centres unmarked) [Embodiment 35, methyl 2-(4-bromophenyl)-2-isopropyl-5-(4-(2-methoxyphenyl)piperazine-1-yl)pentanoate]?
A: IC50 [1, 4]: 95 ± 14.8 nM; inhibition at 10 µM [1, 5]: 94.1 ± 1.5%

Q: With `COC(=O)C(CCCN1CCN(Cc2ccc(OC)cc2)CC1)(c1ccc(Br)cc1)C(C)C` (centres unmarked) [Embodiment 38, methyl 2-(4-bromophenyl)-2-isopropyl-5-(4-(4-methoxybenzyl)piperazine-1-yl)pentanoate] as the compound, how does the IC50 [1, 6] read?
A: The IC50 was 480 ± 80 nM.

Q: What about the inhibition at 10 µM [1, 5] of the same compound?
A: The inhibition at 10 µM was 96 ± 1.7%.

Q: For `COC(=O)C(CCCN1CCN(Cc2ccc(OC)c(OC)c2OC)CC1)(c1ccc(Br)cc1)C(C)C` (centres unmarked) [Embodiment 39, methyl 2-(4-bromophenyl)-2-isopropyl-5-(4-(2,3,4-trimethoxybenzyl)piperazine-1-yl)pentanoate], which IC50 [1, 6] is on record?
A: Its IC50 is 320 ± 10 nM.

Q: And the inhibition at 10 µM [1, 5]?
A: Its inhibition at 10 µM is 95.1 ± 1.9%.

Q: What does the source list for `COC(=O)C(CCCN1CCN(Cc2cccc(C)c2)CC1)(c1ccc(Br)cc1)C(C)C` (centres unmarked) [Embodiment 40, methyl 2-(4-bromophenyl)-2-isopropyl-5-(4-(3-methylbenzyl)piperazine-1-yl)pentanoate]?
A: IC50 [1, 6]: 390 ± 30 nM; inhibition at 10 µM [1, 5]: 94.9 ± 1.5%

Q: For `CCC1(C)CC(=O)NC1=O` (centres unmarked) [Ethosuximide], which “reversal of mechanic and thermal induction” value [2] is on record?
A: Its value is “dosage-dependent reversed mechanic and thermal induction”.

Q: Which results are given for `COCC(=O)O[C@]1(CCN(C)CCCc2nc3ccccc3[nH]2)CCc2cc(F)ccc2[C@@H]1C(C)C` [mibefradil]?
A: reversal of mechanic and thermal induction [2]: dosage-dependent reversed mechanic and thermal induction; more inhibitory activity to the T-type than to the L-type [3]: 10 to 30 times; inhibition at 10 µM [1, 5]: 95.9 ± 1.7%
